Residue numbers refer to the chain shown, from its start.
What was measured:
LinA-type2 = target: T1, LinA-type2 (uncultured organism, UniProt B5ANU3); assay: product formation by chiral GC-ECD; assay type: biochemical; details: 50 mM Tris-HCl pH 8.0, 10% glycerol, 30 °C
T1 construct: natural variant differing from LinA-type1 at ten positions (incl. Q20, C96, G131, M133); pET-26b(+) NdeI/XhoI (C-terminal His tag), E. coli BL21(DE3), Ni-NTA purified
T1 sequence (B5ANU3 1-156): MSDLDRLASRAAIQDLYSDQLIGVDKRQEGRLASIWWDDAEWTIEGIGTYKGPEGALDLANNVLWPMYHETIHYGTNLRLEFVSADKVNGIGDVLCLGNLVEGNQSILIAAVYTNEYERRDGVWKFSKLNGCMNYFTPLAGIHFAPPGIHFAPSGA

LinA-type1 = target: T2, LinA-type1 (Sphingobium indicum, UniProt P51697); assay: product formation by chiral GC-ECD; assay type: biochemical; details: 50 mM Tris-HCl pH 8.0, 10% glycerol, 30 °C
T2 construct: full length 156 residues, pET-26b(+) NdeI/XhoI (C-terminal His tag), E. coli BL21(DE3), Ni-NTA purified
T2 sequence (P51697 1-156): T1 sequence (B5ANU3 1-156) with Q20K, G23A, Y68F, T71C, C96L, Y113F, N115D, L129R, G131A, M133T

## Cl[C@H]1[C@H](Cl)[C@@H](Cl)[C@@H](Cl)[C@H](Cl)[C@H]1Cl [γ-HCH]
LinA-type2
  product formation by chiral GC-ECD: incubations with LinA-type2 led to the formation of a mixture
LinA-type1
  product formation by chiral GC-ECD: incubations of LinA-type1 with γ-HCH led to the formation of only γ-PCCH-2

— PMC5422493, “Important amino acid residues of hexachlorocyclohexane dehydrochlorinases (LinA) for enantioselective transformation of hexachlorocyclohexane isomers” (Biodegradation, 2017)
